Results from BindingDB's records for doi:10.1016/j.bmcl.2008.01.024 (Schering-Plough Research Institute, 2008).

Key:
[1] = Inhibition of CXCR1-mediated chemotaxis in Ba/F3 cells expressing human CXCR1
[2] = Inhibition of CXCR2-mediated chemotaxis in Ba/F3 cells expressing human CXCR2

IC50 [1] [nM]	IC50 [2] [nM]	Structure (SMILES)
917	2	CC[C@@H](Nc1c(Nc2cccc(C(=O)N(C)C)c2O)c(=O)c1=O)c1cc(Br)co1 [(R)-3-(2-(1-(4-bromofuran-2-yl)propylamino)-3,4-dioxocyclobut-1-enylamino)-2-hydroxy-N,N-dimethylbenzamide]
	12.2	CC[C@@H](Nc1c(Nc2cccc(C(=O)N(C)C)c2O)c(=O)c1=O)c1cc(C)on1 [(R)-2-hydroxy-N,N-dimethyl-3-(2-(1-(5-methylisoxazol-3-yl)propylamino)-3,4-dioxocyclobut-1-enylamino)benzamide]
	4.5	CC[C@@H](Nc1c(Nc2cccc(C(=O)N(C)C)c2O)c(=O)c1=O)c1ccccn1 [(R)-3-(3,4-dioxo-2-(1-(pyridin-2-yl)propylamino)cyclobut-1-enylamino)-2-hydroxy-N,N-dimethylbenzamide]
